Results from PubChem BioAssay (NCI).
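Tested at 5 concentrations; 48 h exposure; 96-well plates; endpoints linearly interpolated, else capped at highest concentration. Here, GI50 denotes the concentration required for 50% inhibition of growth. TGI denotes the concentration required for complete inhibition of growth.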

Tests used:
Test in all cases: NCI-60 cell line screen, 48 h
[1] = test system: MALME-3M melanoma
[2] = test system: MCF7 breast
[3] = test system: SK-MEL-28 melanoma
[4] = test system: UACC-257 melanoma
[5] = test system: MDA-MB-435
[6] = test system: OVCAR-3 ovarian
[7] = test system: UACC-62 melanoma
[8] = test system: BT-549 breast
[9] = test system: OVCAR-5 ovarian
[10] = test system: SK-MEL-2 melanoma

Compound	GI50 [1]	TGI [1]	GI50 [2]	TGI [2]	GI50 [3]	TGI [3]	GI50 [4]	TGI [4]	GI50 [5]	TGI [5]	GI50 [6]	TGI [6]	GI50 [7]	TGI [7]	GI50 [8]	TGI [8]	GI50 [9]	TGI [9]	GI50 [10]	TGI [10]
C#Cc1cccc(NC(=O)C2CCCCN2C(=O)CCl)c1 (centres undefined)	9.93 µM	22.4 µM	15.8 µM	> 82.5 µM	54.1 µM	> 82.5 µM	26.2 µM	> 82.5 µM	15.8 µM	60.7 µM	10.1 µM	22.2 µM	18.9 µM	> 82.5 µM	12.5 µM	27.2 µM	13.1 µM	27.2 µM	23.9 µM	> 82.5 µM
Cc1cc(C2CC(O)C(CO)O2)c(Br)cc1Br (centres undefined)	> 100 µM	> 100 µM	> 100 µM	> 100 µM	> 100 µM	> 100 µM	> 100 µM	> 100 µM	> 100 µM	> 100 µM	> 100 µM	> 100 µM	49.7 µM	> 100 µM	> 100 µM	> 100 µM	> 100 µM	> 100 µM	> 100 µM	> 100 µM
CN1c2cccc[c]2[Sn]([CH3])([CH3])[c]2ccccc21	< 0.0238 µM	0.226 µM	< 0.01 µM		0.113 µM	0.303 µM	< 0.01 µM	< 0.0217 µM	< 0.01 µM	0.0291 µM	< 0.0115 µM	< 0.0224 µM	< 0.0147 µM	0.113 µM	< 0.01 µM	0.165 µM	< 0.0115 µM	0.264 µM	< 0.0209 µM	0.18 µM
Nc1nc(N)c2c(n1)NC(c1ccc(Cl)cc1)C1CCc3ccccc3C1=N2 (centres undefined)	8.48 µM	22.8 µM	2.41 µM	10.4 µM	13.9 µM	27.4 µM	7.07 µM	19.6 µM	4.72 µM	19.6 µM	6.46 µM	19 µM	3.66 µM	18.3 µM	9.01 µM	22.6 µM	14.9 µM	28.1 µM	10.6 µM	24.6 µM
COc1cc(-c2cc(-c3ccc(Nc4nc(Nc5ccc(Cl)cc5)nc(Nc5ccc(Cl)cc5)n4)cc3)no2)cc(OC)c1OC	50.3 µM	> 100 µM	3 µM	69.7 µM	14.4 µM	> 100 µM	23.5 µM	> 100 µM	7.15 µM	> 100 µM	6.68 µM	88.9 µM	71.7 µM	> 100 µM	13.9 µM	> 100 µM	27.3 µM	> 100 µM	5.04 µM	> 100 µM
OCC1OC(n2cnc3cc(Cl)c(Cl)cc32)C(O)C1O (centres undefined)	25.5 µM	67.5 µM	21.5 µM	75.9 µM	29.3 µM	> 100 µM	18.7 µM	40.7 µM	24 µM	82.6 µM	22.7 µM	72.3 µM	12.2 µM	26.6 µM	23 µM	58.4 µM	8.01 µM	36.5 µM	14.3 µM	35.9 µM
CC(=O)Nc1ccc2c(c1)[nH]c(=O)c1cc(NC(C)=O)ccc12	> 100 µM	> 100 µM	> 100 µM	> 100 µM	> 100 µM	> 100 µM	> 100 µM	> 100 µM	> 100 µM	> 100 µM	> 100 µM	> 100 µM	> 100 µM	> 100 µM	> 100 µM	> 100 µM	> 100 µM	> 100 µM	> 100 µM	> 100 µM
Cc1c(-c2c(F)cc(C(N)=O)c3[nH]c4c(c23)CC[C@H](C(C)(C)O)C4)cccc1-n1c(=O)c2cccc(F)c2n(C)c1=O	1.84 µM	28.2 µM	1.04 µM	> 100 µM	4.59 µM	> 100 µM	2.9 µM	> 100 µM	3.81 µM	> 100 µM	3.95 µM	> 100 µM	3 µM	> 100 µM	3.93 µM	63 µM	2.83 µM	> 100 µM	3.05 µM	26 µM
Cn1cc(-c2nc(-c3c[nH]c4ccccc34)cs2)c2cccnc21	0.745 µM	86.6 µM	0.325 µM	> 100 µM	0.71 µM	> 100 µM	14.2 µM	> 100 µM	0.0321 µM	0.25 µM	0.2 µM	5.9 µM	0.388 µM	> 72.9 µM	0.325 µM	17.8 µM	2.11 µM	> 100 µM	0.353 µM	51.8 µM
OCC1OC(N2CCN(C3OC(CO)C(O)C(O)C3O)CC2)C(O)C(O)C1O (centres undefined)		> 100 µM		> 100 µM		> 100 µM		> 100 µM		> 100 µM		> 100 µM		> 100 µM		> 100 µM		> 100 µM		> 100 µM
Nc1[nH]c(=S)[nH]c(=O)c1N=Nc1c(Br)cc(S(N)(=O)=O)cc1Br		> 100 µM		> 100 µM		> 100 µM		> 100 µM		> 100 µM		> 100 µM		> 100 µM		> 100 µM		> 100 µM		> 100 µM
Nc1cc2c3ccccc3ccc2c2ccccc12	> 100 µM	> 100 µM	20.2 µM	> 100 µM	> 100 µM	> 100 µM	> 100 µM	> 100 µM	> 56.1 µM	> 100 µM	> 67 µM	> 100 µM	> 100 µM	> 100 µM	> 77.1 µM	> 100 µM	> 100 µM	> 100 µM	> 100 µM	> 100 µM
CN1CCN(CCCn2c3c(sc4ncccc43)c(=O)n3nnc(-c4ccccc4)c23)CC1	6.38 µM	11.8 µM	1.72 µM	3.16 µM	18 µM	32.2 µM	5.81 µM	10.5 µM	1.79 µM	3.5 µM	1.81 µM	3.42 µM	17.6 µM	33.8 µM	14.7 µM	30.6 µM	6.89 µM	15.9 µM	21.6 µM	39 µM
c1ccc(OCC[P+](c2ccccc2)(c2ccccc2)c2ccccc2)cc1	1.48 µM	12.9 µM	1.24 µM	11.1 µM	1.24 µM	9.81 µM	0.425 µM	5.41 µM	0.433 µM	4.31 µM	1.11 µM	7.69 µM	0.678 µM	8.99 µM	1.65 µM	12 µM	2.66 µM	20.6 µM	1.06 µM	10.8 µM
Cc1cccc(Nc2ncc(-c3ccccc3)o2)c1	> 25 µM	> 25 µM	12.9 µM	> 25 µM	> 25 µM	> 25 µM	> 25 µM	> 25 µM	> 25 µM	> 25 µM	> 25 µM	> 25 µM	> 25 µM	> 25 µM	> 25 µM	> 25 µM	> 25 µM	> 25 µM	> 25 µM	> 25 µM
CC(=O)OCc1cc[c]([Hg][Cl])o1	1.6 µM	3.27 µM	0.994 µM	18.3 µM	2.73 µM	7.84 µM	13.5 µM	26.8 µM	3.54 µM	15.5 µM	3.97 µM	16.2 µM	2.59 µM	11.3 µM	6.43 µM	19.3 µM	11.8 µM	30.2 µM	16.7 µM	32.2 µM
COc1cc(/C=C/[N+](=O)[O-])cc(OC)c1	3.29 µM	10.4 µM	1.39 µM	3.61 µM	2.75 µM	7.29 µM	2.48 µM	7.57 µM	2.99 µM	10.3 µM	1.56 µM	3.07 µM	2.42 µM	7.34 µM	1.85 µM	3.65 µM	3.66 µM	13.4 µM	2.1 µM	4.76 µM
CC1NCCC(CC(=O)O)C1CC(=O)O (centres undefined)		> 100 µM		> 100 µM		> 100 µM		> 100 µM		> 100 µM		> 100 µM		> 100 µM		> 100 µM		> 100 µM		> 100 µM
CCN1C(=O)N(CC)C2C1NN=c1s/c(=C\c3ccc(Br)cc3)c(=O)n12 (centres undefined)	2.39 µM	> 100 µM	0.0443 µM	> 100 µM	> 53.8 µM	> 100 µM	0.849 µM	> 100 µM	0.0252 µM	0.0706 µM	0.102 µM	> 100 µM	0.0557 µM	> 100 µM	0.196 µM	16.4 µM	0.583 µM	> 100 µM	4.91 µM	> 100 µM
NC(=O)C1CCCN1Cc1ccc2c(c1)OCO2 (centres undefined)		> 100 µM		> 100 µM		> 100 µM		> 100 µM		> 100 µM		> 100 µM		> 100 µM		> 100 µM		> 100 µM		> 100 µM
